Data taken from patent publication US5723484A, “Benzopyran compounds as 5-HT2C receptor antagonists” (Adir et Compagnie, priority 1994, dated 1998).
Structures can show the parent of a compound that is named as a salt.

Columns and labels:
[1] = target: T1, 5-HT2C receptors (Sus scrofa, UniProt K7GSR7); assay: biochemical; assay type: binding, pig; details: for Ki: 5-HT2C Ki (nM), pig cerebral plexus, [3H]-mesulergine 1.0 nM, average of two to four determinations
T1 construct: pig cerebral plexus; from tissue; host or cells: pig cerebral plexus (own knowledge: choroid plexus)
T1 sequence (K7GSR7 1-457): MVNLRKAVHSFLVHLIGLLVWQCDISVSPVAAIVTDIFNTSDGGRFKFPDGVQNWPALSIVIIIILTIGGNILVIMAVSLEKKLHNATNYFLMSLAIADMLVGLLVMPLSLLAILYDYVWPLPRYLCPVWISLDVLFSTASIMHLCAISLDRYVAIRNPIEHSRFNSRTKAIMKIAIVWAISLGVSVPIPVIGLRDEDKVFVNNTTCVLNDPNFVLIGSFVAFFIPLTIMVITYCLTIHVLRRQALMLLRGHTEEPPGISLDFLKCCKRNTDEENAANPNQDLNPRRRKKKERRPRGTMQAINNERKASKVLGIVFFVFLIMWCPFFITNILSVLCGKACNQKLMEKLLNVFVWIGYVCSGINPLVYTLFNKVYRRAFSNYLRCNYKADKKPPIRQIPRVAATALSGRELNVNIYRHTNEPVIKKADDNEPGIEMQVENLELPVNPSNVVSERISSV
Protocol: (§1) Measurement of the in vitro affinity for the 5-HT2C and 5-HT2A receptors
(§2) The procedures described for the studies of the binding to the 5-HT2A and 5-HT2C receptors are exactly those described by H. Canton et al. (Eur. J. Pharmacol., 191, 93, 1990) and M. J. Millan et al. (J. Pharmacol. Exp. Ther., 262, 451-463, 1992). For 5-HT2A : rat frontal cortex/[^3 H]-ketanserin (1.0 nM). For 5-HT2C : pig […] plexus/[^3 H]-mesulergine (1.0 nM). The 50% inhibitory doses (ID50) are determined by regression analysis and the pKi values are calculated as follows: [formula] [L]=concentration of the Kd-Kd=dissociation constant Results

[2] = tested on: 5-HT2C receptors; assay: biochemical; assay type: binding, pig; details: for 5-HT2A /5-HT2C affinity ratio: 5-HT2A Ki (rat frontal cortex) over 5-HT2C Ki (pig cerebral plexus); for selectivity relative to the reference compound SB 200,646: 5-HT2C vs 5-HT2A, relative to SB 200,646
Protocol: as §1, §2

[3] = target: T2, 5-HT2A receptors (Rattus norvegicus, UniProt P14842); assay: In vitro affinity for the 5-HT2A receptors, rat frontal cortex/[3H]-ketanserin (1.0 nM); assay type: binding; details: rat frontal cortex, [3H]-ketanserin 1.0 nM; average of two to four determinations
T2 construct: rat frontal cortex; from tissue; host or cells: rat frontal cortex
T2 sequence (P14842 whole entry): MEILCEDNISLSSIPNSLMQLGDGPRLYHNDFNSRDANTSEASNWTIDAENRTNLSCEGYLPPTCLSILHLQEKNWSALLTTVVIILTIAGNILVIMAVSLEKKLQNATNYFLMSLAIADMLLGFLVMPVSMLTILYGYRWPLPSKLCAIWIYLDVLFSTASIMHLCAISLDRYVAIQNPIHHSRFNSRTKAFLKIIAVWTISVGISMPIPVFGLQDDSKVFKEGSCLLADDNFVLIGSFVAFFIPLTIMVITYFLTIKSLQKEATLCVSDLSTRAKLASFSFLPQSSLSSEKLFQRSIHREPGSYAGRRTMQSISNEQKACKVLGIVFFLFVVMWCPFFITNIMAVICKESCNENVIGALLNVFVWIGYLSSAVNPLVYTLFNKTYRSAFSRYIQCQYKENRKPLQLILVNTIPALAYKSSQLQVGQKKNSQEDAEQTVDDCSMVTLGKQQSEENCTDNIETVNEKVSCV
Protocol: as §1, §2

Compound | Ki [1] | 5-HT2A /5-HT2C affinity ratio [2] | Ki [3] | selectivity relative to the reference compound SB 200,646 [2] | times more powerful antagonists than the reference compound SB 200,646 ([1]; relative to SB 200,646)
Cl.Oc1cccc2c1[C@H]1CN(Cc3ccccc3)C[C@@H]1CO2 (relative stereo) [Example 2, trans-2-Benzyl-9-hydroxy-1,3,3a,4,9b-pentahydro-(1)-benzopyrano[3,4-c]pyrrole hydrochloride] | 195 nM | 2.5 | 0.49 µM |  | 
COc1cccc2c1[C@H]1CN(Cc3ccccc3)C[C@@H]1CO2.Cl (relative stereo) [Example 3, trans-2-Benzyl-9-methoxy-1,3,3a,4,9b-pentahydro-(1)-benzopyrano[3,4-c]pyrrole hydrochloride] | 48 nM | 5.6 | 0.269 µM |  | 
COc1cccc2c1[C@H]1CNC[C@@H]1CO2.Cl (relative stereo) [Example 4, trans-9-Methoxy-1,3,3a,4,9b-pentahydro-(1)-benzopyrano[3,4-c]pyrrole hydrochloride] | 431 nM | 8.0 | 3.47 µM |  | 
CCCN1C[C@@H]2COc3cccc(OC)c3[C@H]2C1 (relative stereo) [Example 6, trans-2-Propyl-9-methoxy-1,3,3a,4,9b-pentahydro-(1)-benzopyrano[3,4-c]pyrrole] | 104 nM | 16.7 | 1.74 µM | twice that of the reference compound SB 200,646 | 
C=CCN1C[C@@H]2COc3cccc(OC)c3[C@H]2C1 (relative stereo) [Example 7, trans-2-Allyl-9-methoxy-1,3,3a,4,9b-pentahydro-(1)-benzopyrano[3,4-c]pyrrol] | 120 nM | 15.2 | 1.82 µM | twice that of the reference compound SB 200,646 | 
COc1cccc2c1[C@@H]1CN(CCNC(=O)c3ccc(F)cc3)C[C@H]1CO2 (relative stereo) [Example 8, trans-2-[3-(4-Fluorobenzoylamino)ethyl]-9-methoxy-1,3,3a,4,9b-pentahydro-(1)-benzopyrano[3,4-c]pyrrole] | 107 nM | 0.9 | 0.095 µM |  | 
COc1ccc2c(c1)[C@H]1CN(Cc3ccccc3)C[C@@H]1CO2.Cl (relative stereo) [Example 9, trans-2-Benzyl-8-methoxy-1,3,3a,4,9b-pentahydro-(1)-benzopyrano[3,4-c]pyrrole hydrochloride] | 468 nM | 2.3 | 1.1 µM |  | 
COc1ccc2c(c1)[C@H]1CNC[C@@H]1CO2.Cl (relative stereo) [Example 10, trans-8-Methoxy-1,3,3a,4,9b-pentahydro-(1)-benzopyrano[3,4-c]pyrrole hydrochloride] | 2190 nM | > 4.8 | > 10 µM |  | 
CCCN1C[C@@H]2COc3ccc(OC)cc3[C@H]2C1.Cl (relative stereo) [Example 11, trans-2-Propyl-8-methoxy-1,3,3a,4,9b-pentahydro-(1)-benzopyrano[3,4-c]pyrrole hydrochloride] | 4070 nM | > 2.3 | > 10 µM |  | 
Cl.c1ccc(CN2C[C@@H]3COc4ccccc4[C@@H]3C2)cc1 (relative stereo) [Example 12, cis-2-Benzyl-1,3,3a,4,9b-pentahydro-(1)-benzopyrano[3,4-c]pyrrole hydrochloride] | 832 nM | 4.3 | 3.55 µM |  | 
Cl.c1ccc2c(c1)OC[C@H]1CNC[C@@H]21 (relative stereo) [Example 13, cis-1,3,3a,4,9b-Pentahydro-(1)-benzopyrano[3,4-c]pyrrole hydrochloride] | 3090 nM | > 3.33 | > 10 µM |  | 
Oc1cccc2c1[C@H]1CN(Cc3ccccc3)C[C@H]1CO2 (relative stereo) [Example 14, cis-2-Benzyl-9-hydroxy-1,3,3a,4,9b-pentahydro-(1)-benzopyrano[3,4-c]pyrrolehydrochloride] | 219 nM | 5.00 | 1.1 µM |  | 
COc1cccc2c1[C@H]1CN(Cc3ccccc3)C[C@H]1CO2 (relative stereo) [Example 15, cis-2-Benzyl-9-methoxy-1,3,3a,4,9b-pentahydro-(1)-benzopyrano[3,4-c]pyrrolehydrochloride] | 36.3 nM | 10.7 | 0.389 µM |  | 
COc1cccc2c1[C@@H]1CNC[C@@H]1CO2.Cl (relative stereo) [Example 16, cis-9-Methoxy-1,3,3a,4,9b-pentahydro-(1)-benzopyrano[3,4-c]pyrrole hydrochloride] | 263 nM | 12.6 | 3.31 µM |  | 
Cl.Clc1ccc2c(c1)OC[C@H]1CN(Cc3ccccc3)C[C@H]21 (relative stereo) [Example 18, trans-2-Benzyl-7-chloro-1,3,3a,4,9b-pentahydro-(1)-benzopyrano[3,4-c]pyrrole hydrochloride] | 871 nM | 2.1 | 1.87 µM |  | 
c1ccc2c(c1)OC[C@@H]1CN(CCOc3cccc4c3SCCC4)C[C@H]21 (relative stereo) [Example 19, cis-2-[2-(Thiochroman-8-yloxy)ethyl]-1,3,3a,9b-pentahydro-(1)-benzopyrano[3,4-c]pyrrole hydrochloride] | 22 nM | 7.0 | 0.155 µM |  | 9 times
COc1ccc2c(c1)OC[C@@H]1CN(Cc3ccccc3)C[C@H]21 (relative stereo) [Example 21, cis-2-Benzyl-7-methoxy-1,3,3a,4,9b-pentahydro-(1)-benzopyrano[3,4-c]pyrrolehydrochloride] | 871 nM | 0.7 | 0.617 µM |  | 
COc1ccc2c(c1)OC[C@H]1CN(Cc3ccccc3)C[C@H]21.Cl (relative stereo) [Example 22, trans-2-Benzyl-7-methoxy-1,3,3a,4,9b-pentahydro-(1)-benzopyrano[3,4-c]pyrrole hydrochloride] | 478 nM | 3.6 | 0.17 µM |  | 
Clc1ccc2c(c1)[C@H]1CN(Cc3ccccc3)C[C@H]1CO2 (relative stereo) [Example 24, cis-2-Benzyl-8-chloro-1,3,3a,4,9b-pentahydro-(1)-benzopyrano[3,4-c]pyrrolehydrochloride] | 38 nM | 2.8 | 0.107 µM |  | 
Cl.c1ccc2c3c(ccc2c1)OC[C@@H]1CNC[C@@H]31 (relative stereo) [Example 33, trans-1,2,3,3a,4,11c-Hexahydro-5-oxa-2-aza-cyclopenta[c]phenanthrene hydrochloride] | 51 nM | 2.1 | 0.107 µM |  | 
Cl.c1ccc(CN2C[C@H]3COc4c(ccc5ccccc45)[C@@H]3C2)cc1 (relative stereo) [Example 34, trans-16-Benzyl-12,13,14,15,16,17-hexahydro-11-oxa-16-aza-cyclopenta[a]phenanthrene hydrochloride] | 776 nM | 1.9 | 1.48 µM |  | 
Cl.c1ccc(CN2C[C@@H]3COc4c(ccc5ccccc45)[C@@H]3C2)cc1 (relative stereo) [Example 35, cis-16-Benzyl-12,13,14,15,16,17-hexahydro-11-oxa-16-aza-cyclopenta[a]phenanthrene hydrochloride] | 331 nM | 2.9 | 0.955 µM |  | 
Cl.c1ccc2c3c(ccc2c1)[C@@H]1CNC[C@@H]1CO3 (relative stereo) [Example 36, cis-12,13,14,15,16,17-Hexahydro-11-oxa-16-aza-cyclopenta[a]phenanthrene hydrochloride] | 25.7 nM | 10 | 0.257 µM |  | 
c1ccc(CN2C[C@H]3COc4ccc5ccccc5c4[C@H]3C2)cc1 (relative stereo) [Example 37, cis-2-Benzyl-1,2,3,3a,4,11c-hexahydro-5-oxa-2-aza-cyclopenta[c]phenanthrenehydrochloride] | 155 nM | 8.7 | 1.35 µM |  | 
Cl.c1ccc2c3c(ccc2c1)OC[C@@H]1CNC[C@H]31 (relative stereo) [Example 38, cis-1,2,3,3a,4,11c-Hexahydro-5-oxa-2-aza-cyclopenta[c]phenanthrene hydrochloride] | 22.9 nM | 4.3 | 0.0977 µM |  | 
